Assay results published in patent US20130096055A1, “LONG-ACTING Y2 RECEPTOR AGONISTS” (Novo Nordisk A/S, priority 2009, published 2013).
Starred links: 1 amine or outer side, 2 acyl side, 3 side chain; linkers in the order of their positions; H or OH if unused. Groups on a side chain read outwards from the residue. No end group written: not given here. *: point of attachment. C18 diacid = O=C(O)CCCCCCCCCCCCCCCCC(=O)*; γGlu = O=C(O)[C@H](CCC(=O)[*:2])N[*:1]; AEEA = NCCOCCOCC(=O)O

What was measured:
Y1 receptor [1] = biological target: T1, Y1 receptor (Homo sapiens, UniProt P25929); assay: Assay (II) Y1 receptor ACTOne potency assay; type: cell-based
T1 construct: expressed in transfected cells; host or cells: ACTOne HEK-293 cells
T1 sequence (P25929 1-384): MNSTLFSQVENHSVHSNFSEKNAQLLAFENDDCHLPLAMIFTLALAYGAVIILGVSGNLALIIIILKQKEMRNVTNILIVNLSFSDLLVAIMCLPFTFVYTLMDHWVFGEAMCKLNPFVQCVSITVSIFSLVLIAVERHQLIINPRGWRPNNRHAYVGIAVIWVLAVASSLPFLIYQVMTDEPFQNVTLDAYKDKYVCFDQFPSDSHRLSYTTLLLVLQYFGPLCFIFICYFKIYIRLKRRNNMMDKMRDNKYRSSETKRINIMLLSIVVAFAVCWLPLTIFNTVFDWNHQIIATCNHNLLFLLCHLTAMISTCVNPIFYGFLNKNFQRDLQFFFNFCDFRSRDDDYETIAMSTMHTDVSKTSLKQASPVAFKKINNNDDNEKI
Text: ACTOne™ is an easily scaleable cAMP biosensor HTS platform for measurement of Gs and Gi coupled 7™ receptor signalling from BD Biosciences (San Jose, Calif.). The cells express a biosensor developed around a modified rat olfactory cyclic nucleotide gated (CNG) calcium channel—a fairly non-discriminatory ion channel that responds to cAMP and cGMP. The CNG has been engineered to be cAMP selective and thus function as a cAMP responsive biosensor that signals through calcium or membrane potential responsive dyes.

human Y5 receptor [2] = biological target: T2, human Y5 receptor (Homo sapiens, UniProt Q15761); assay: Assay (III) Y5 receptor IPOne potency assay; type: cell-based
T2 construct: expressed in transfected cells
T2 sequence (Q15761 1-445): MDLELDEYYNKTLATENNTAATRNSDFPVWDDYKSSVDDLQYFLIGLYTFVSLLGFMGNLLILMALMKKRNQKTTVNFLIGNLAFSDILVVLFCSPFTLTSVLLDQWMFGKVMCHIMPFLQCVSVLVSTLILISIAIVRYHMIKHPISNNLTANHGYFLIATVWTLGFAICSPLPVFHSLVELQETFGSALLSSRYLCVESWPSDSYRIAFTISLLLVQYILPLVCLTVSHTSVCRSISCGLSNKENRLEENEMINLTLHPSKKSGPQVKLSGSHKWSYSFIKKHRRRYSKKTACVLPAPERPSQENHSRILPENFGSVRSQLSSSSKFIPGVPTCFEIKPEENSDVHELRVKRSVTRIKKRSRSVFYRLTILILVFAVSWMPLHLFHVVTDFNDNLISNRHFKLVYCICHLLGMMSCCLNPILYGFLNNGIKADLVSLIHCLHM

Y1 receptor [3] = biological target: T3, Y1 receptor (UniProt P25929 1-384, limits assumed); assay: cell-based or functional assay
T3 sequence (looked up): T1 sequence (P25929 1-384)

Y2 receptor = biological target: T4, Y2 receptor (UniProt P49146 1-381, limits assumed); assay: cell-based or functional assay
T4 sequence (looked up): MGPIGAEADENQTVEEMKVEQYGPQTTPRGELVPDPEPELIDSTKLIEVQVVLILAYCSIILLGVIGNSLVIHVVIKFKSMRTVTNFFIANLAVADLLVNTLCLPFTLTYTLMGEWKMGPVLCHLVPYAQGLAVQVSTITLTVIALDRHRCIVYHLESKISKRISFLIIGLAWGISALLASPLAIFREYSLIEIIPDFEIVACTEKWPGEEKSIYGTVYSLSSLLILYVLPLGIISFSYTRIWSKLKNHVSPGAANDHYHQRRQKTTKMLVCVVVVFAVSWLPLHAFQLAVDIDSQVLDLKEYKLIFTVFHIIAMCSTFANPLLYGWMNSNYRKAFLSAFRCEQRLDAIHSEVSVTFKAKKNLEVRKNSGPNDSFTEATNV

human Y5 receptor [4] = biological target: T5, human Y5 receptor (human, UniProt Q15761 1-445); assay: cell-based or functional assay
T5 sequence (looked up): T2 sequence (Q15761 1-445)

Row | Molecule | EC50 (Y1 receptor [1]) | Receptor potency Y1/Y2 ratio (Y1 receptor [1]; ratio of Y1 (Assay II) to Y2 (Assay I) receptor potency) | EC50 (human Y5 receptor [2]) | Receptor potency Y5/Y2 ratio (human Y5 receptor [2]; ratio of Y5 (Assay III) to Y2 (Assay I) receptor potency) | Receptor potency Y1 (Assay (II), ACTOne) (Y1 receptor [3]) | Receptor potency Y2 (Assay (I), ACTOne) (Y2 receptor) | Receptor potency Y5 (Assay (III), IPOne) (human Y5 receptor [4])
1 | CC[C@H](C)[C@H](N)C(=O)N[C@@H](CCCNC(=N)N)C(=O)N1CCC[C@H]1C(=O)N[C@@H](CCC(=O)O)C(=O)N[C@@H](C)C(=O)N1CCC[C@H]1C(=O)NCC(=O)N[C@@H](CCC(=O)O)C(=O)N[C@@H](CC(=O)O)C(=O)N[C@@H](C)C(=O)N[C@@H](CO)C(=O)N1CCC[C@H]1C(=O)N[C@@H](CCC(=O)O)C(=O)N[C@@H](CCC(=O)O)C(=O)N[C@@H](CC(C)C)C(=O)N[C@@H](CCC(=O)O)C(=O)N[C@@H](CCCNC(=N)N)C(=O)N[C@@H](Cc1ccc(O)cc1)C(=O)N[C@@H](Cc1ccc(O)cc1)C(=O)N[C@@H](C)C(=O)N[C@@H](CO)C(=O)N[C@@H](CC(C)C)C(=O)N[C@@H](CCCNC(=N)N)C(=O)N[C@@H](Cc1c[nH]cn1)C(=O)N[C@@H](Cc1ccc(O)cc1)C(=O)N[C@@H](CC(C)C)C(=O)N[C@@H](CCC(N)=O)C(=O)N[C@@H](CCCCNC(=O)COCCOCCNC(=O)COCCOCCNC(=O)CC[C@H](NC(=O)CCCCCCCCCCCCCCCCC(=O)O)C(=O)O)C(=O)N[C@H](C(=O)N[C@H](C(=O)N[C@@H](CCCNC(=N)N)C(=O)N[C@@H](CCC(N)=O)C(=O)N[C@@H](CCCNC(=N)N)C(=O)N[C@@H](Cc1ccc(O)cc1)C(N)=O)[C@@H](C)O)C(C)C [SEQ ID NO: 39, N-epsilon30[2-(2-{2-[2-(2-{2-[(S)-4-Carboxy-4-(17-carboxyheptadecanoylamino)butyrylamino]ethoxy}ethoxy)acetylamino]ethoxy}ethoxy)acetyl][Arg4,Glu18,Gln29,Lys30]hPYY(3-36)] | ≥ 1000 nM | >3.6 | ≥ 1000 nM | >3.6 | – | – | –
2 | IRPEAPGEDASPEELERYYASLRHYLQK([AEEA-AEEA-γGlu-C18 diacid])VTRQRY-NH2 | – | – | – | – | ≥ 1000 nM | 274 nM | ≥ 1000 nM
